US5003055A, “Anthracycline derivatives having inhibitory activity against reverse transcriptase of human immunodeficiency virus” (priority 1987, dated 1991)
Converted amounts (≈) assume the structure as drawn. Counter-ions that a name gives are not always drawn. Like-named read-outs stand apart in the source and are kept apart here.

Key:
[1] = tested on: mouse lymphocytic leukemia P-388 cells; test: Cytotoxicity against P-388 cells (proliferation, MTT technique); assay type: cell-based; details: for IC50: Mus musculus, P388, 48 h, read-out: Cytotoxicity against P-388 cells (IC50, μg/ml) (B); for Cytotoxicity against P-388 cells (IC50, μg/ml) (B): 2880 min
Protocol: (b) On the other hand, the cytotoxicity was measured in the following manner. The novel anthracycline derivative of this invention was added to 5×10^3 cells of mouse lymphocytic leukemia P-388 in an incubation medium. After stirring, themixture was incubated Forty-eight hours later, the rate (%) of proliferation of the cells was measured by the MTT technique.

[2] = background statement; cited from earlier work
[3] = target: HIV reverse transcriptase (Human immunodeficiency virus type 1 group M subtype B, UniProt P04585); test: biochemical; details: for IC50: HIV reverse transcriptase inhibitory activity (IC50, μg/ml) (A), 37° C., 30 minutes, HIV lysate; for Enzyme inhibitory activity/cytotoxicity ratio (A)/(B): ratio of IC50 HIV reverse transcriptase (A) to IC50 P-388 (B)
Protocol: (a) After treating a supernatant of a culture of HIV-infected T4-cells (Molt 4/HTLV 1116/H9) with 9.5% polyethylene glycol for 3 hours, the supernatant was centrifuged at 2500 rpm for 30 minutes to obtain a precipitate. This precipitate was lysed with a mixture comprising 33.3% glycerol, […] tris-HCl (pH 7.5), 533 mM KCl, 0.32% Triton X-100 and 3.3 mM dithiothreitol, so as to prepare an HIV lysate (2.5×10^6 PFU/ml) The activity of the reverse transcriptase present in the HIV lysate thus prepared was determined in terms of the up-take rate of [α-^32 P]dATP during the synthesis of DNA, with using rabbit-β-globin mRNA and oligo dT as the template and primer, respectively. Thus, 1 μl of the HIV lysate was added to 9 μl of an enzymatic reaction solution comprising 50 mM tris-HCl (pH 8.3), 70 mM KCl, 10 mM MgCl2, 30 mM mercaptoethanol, 90 nM dNTPs, 3.3 μg/ml oligo dT, 8.3 mU/ml human placenta RNase inhibitor, 5 μg/ml β-globin mRNA, 0.14 mCi/ml [α-^32 P]dATP. After incubating the resultant mixture at 37° C. for 30 minutes, 10% aqueous trichloroacetic acid (TCA) was added to terminate the reaction.
After completion of the reaction, the whole reaction mixture was placed on a nitrocellulose membrane filter so as to adsorb the resultant DNA into the filter. The filter was then washed with 5% TCA and 20 mM sodium pyrophosphate to remove the unreacted [α-^32 P]dATP therefrom. The amount of the resultant DNA on the nitrocellulose membrane filter was calculated by measuring its radioactivity.
The novel anthracycline derivatives of this invention were separately added to the enzymatic reaction solution. The above experiment was repeated using the so prepared enzymatic reaction solution containing the anthracycline derivative as a test compound, so that the evaluation was made of IC50 of the test compound inhibitory to the activity of the HIV reverse transcriptase, namely the concentration of the test compound which was 50% inhibitory to the activity of the HIV reverse transcriptase.

COc1cccc2c1C(=O)c1c(O)c3c(c(O)c1C2=O)C[C@@](O)(C(=O)CO)C[C@@H]3O[C@H]1C[C@H](N)[C@H](O)[C@H](C)O1 [ADM, adriamycin, reference compound]
IC50 ([1]; P-388, 48 hours, MTT technique): 0.037 µg/mL (≈ 0.0681 µM)
toxicity (in words) [2]: high toxicity

COc1cccc2c1C(=O)c1c(O)c3c(c(O)c1C2=O)C[C@@](O)(C(=O)CO)C[C@@H]3O[C@H]1C[C@H](N)[C@H](O)[C@H](C)O1 [ADM.HCl, reference compound]
Cytotoxicity against P-388 cells (IC50, μg/ml) (B) ([1]; P-388, 48 hours, MTT technique): 0.02 µg/mL

COCc1ccc(C(=O)OCC(=O)[C@]2(O)Cc3c(O)c4c(c(O)c3[C@@H](O[C@H]3C[C@H](N)[C@H](O)[C@H](C)O3)C2)C(=O)c2c(OC)cccc2C4=O)cc1OC [NOVA-1, 14-O-(3-methoxy-4-methoxymethylbenzoyl)adriamycin]
IC50 ([1]; P-388, 48 hours, MTT technique): 0.29 µg/mL (≈ 0.402 µM)
IC50 [3]: 41.6 µM
Enzyme inhibitory activity/cytotoxicity ratio (A)/(B) [3]: 103

CCCCCCOCc1ccc(C(=O)OCC(=O)[C@]2(O)Cc3c(O)c4c(c(O)c3[C@@H](O[C@H]3C[C@H](N)[C@H](O)[C@H](C)O3)C2)C(=O)c2c(OC)cccc2C4=O)cc1OCCCCCC [NOVA-2, 14-O-(3-n-hexyloxy-4-n-hexyloxymethylbenzoyl)adriamycin]
IC50 ([1]; P-388, 48 hours, MTT technique): 0.48 µg/mL (≈ 0.557 µM)
IC50 [3]: 19.7 µM
Enzyme inhibitory activity/cytotoxicity ratio (A)/(B) [3]: 35

CCCCCCCCCCCOCc1ccc(C(=O)OCC(=O)[C@]2(O)Cc3c(O)c4c(c(O)c3[C@@H](O[C@H]3C[C@H](N)[C@H](O)[C@H](C)O3)C2)C(=O)c2c(OC)cccc2C4=O)cc1OCCCCCCCCCCC [NOVA-3.HCl, 14-O-(3-n-undecyloxy-4-n-undecyloxymethylbenzoyl)adriamycin hydrochloride]
IC50 ([1]; P-388, 48 hours, MTT technique): 0.49 µg/mL
IC50 [3]: 18.5 µM
Enzyme inhibitory activity/cytotoxicity ratio (A)/(B) [3]: 38

CCCCCCCCCCCOc1cc(C(=O)OCC(=O)[C@]2(O)Cc3c(O)c4c(c(O)c3[C@@H](O[C@H]3C[C@H](N)[C@H](O)[C@H](C)O3)C2)C(=O)c2c(OC)cccc2C4=O)ccc1CO [NOVA-4, 14-O-(3-n-undecyloxy-4-hydroxymethylbenzoyl)adriamycin]
IC50 ([1]; P-388, 48 hours, MTT technique): 0.5 µg/mL (≈ 0.59 µM)
IC50 [3]: 14.7 µM
Enzyme inhibitory activity/cytotoxicity ratio (A)/(B) [3]: 25

CCCCCCCCCCCCCCCCCCOCc1ccc(C(=O)OCC(=O)[C@]2(O)Cc3c(O)c4c(c(O)c3[C@@H](O[C@H]3C[C@H](N)[C@H](O)[C@H](C)O3)C2)C(=O)c2c(OC)cccc2C4=O)cc1OCCCCCCCCCCCCCCCCCC [NOVA-5.HCl, 14-O-(3-n-octadecyloxy-4-n-octadecyloxymethylbenzoyl)adriamycin hydrochloride]
IC50 ([1]; P-388, 48 hours, MTT technique): 3.2 µg/mL
IC50 [3]: 18.4 µM
Enzyme inhibitory activity/cytotoxicity ratio (A)/(B) [3]: 6.9

COc1cccc2c1C(=O)c1c(O)c3c(c(O)c1C2=O)C[C@@](O)(C(=O)COC(=O)c1ccc(CO)c(O)c1)C[C@@H]3O[C@H]1C[C@H](N)[C@H](O)[C@H](C)O1 [NOVA-6, 14-O-(3-hydroxy-4-hydroxymethylbenzoyl)adriamycin]
IC50 ([1]; P-388, 48 hours, MTT technique): 0.15 µg/mL (≈ 0.216 µM)
IC50 [3]: 79.3 µM
Enzyme inhibitory activity/cytotoxicity ratio (A)/(B) [3]: 370

COc1cccc2c1C(=O)c1c(O)c3c(c(O)c1C2=O)C[C@@](O)(C(=O)COC(=O)c1ccc2c(c1)OC(C)(C)OC2)C[C@@H]3O[C@H]1C[C@H](N)[C@H](O)[C@H](C)O1 [NOVA-7, 14-O-(0-isopropylidene-3-hydroxy4-hydroxymethylbenzoyl)adriamycin]
IC50 [1]: 0.19 µg/mL (≈ 0.259 µM)
IC50 [3]: 31.3 µM
Enzyme inhibitory activity/cytotoxicity ratio (A)/(B) [3]: 121

COc1ccc(C(=O)OCC(=O)[C@]2(O)Cc3c(O)c4c(c(O)c3[C@@H](O[C@H]3C[C@H](N)[C@H](O)[C@H](C)O3)C2)C(=O)c2c(OC)cccc2C4=O)cc1OC [NOVA-8, 14-O-(3,4-dimethoxybenzoyl)-adriamycin]
IC50 ([1]; P-388, 48 hours, MTT technique): 0.33 µg/mL (≈ 0.466 µM)
IC50 [3]: 26.8 µM
Enzyme inhibitory activity/cytotoxicity ratio (A)/(B) [3]: 58

CCCCCCOc1ccc(C(=O)OCC(=O)[C@]2(O)Cc3c(O)c4c(c(O)c3[C@@H](O[C@H]3C[C@H](N)[C@H](O)[C@H](C)O3)C2)C(=O)c2c(OC)cccc2C4=O)cc1OCCCCCC [NOVA-9, 14-O-(3,4-di-n-hexyloxybenzoyl)adriamycin]
IC50 ([1]; P-388, 48 hours, MTT technique): 2.6 µg/mL (≈ 3.07 µM)
IC50 [3]: 23.6 µM
Enzyme inhibitory activity/cytotoxicity ratio (A)/(B) [3]: 7.8

CCCCCCOc1ccc(C(=O)OCC(=O)[C@]2(O)Cc3c(O)c4c(c(O)c3[C@@H](O[C@H]3C[C@H](N)[C@H](O)[C@H](C)O3)C2)C(=O)c2c(OC)cccc2C4=O)cc1OCCCCCC [NOVA-9.1/2H2 SO4]
Cytotoxicity against P-388 cells (IC50, μg/ml) (B) ([1]; P-388, 48 hours, MTT technique): 5.2 µg/mL
IC50 [3]: 27.1 µM
Enzyme inhibitory activity/cytotoxicity ratio (A)/(B) [3]: 4.4

CCCCCCOc1ccc(C(=O)OCC(=O)[C@]2(O)Cc3c(O)c4c(c(O)c3[C@@H](O[C@H]3C[C@H](N)[C@H](O)[C@H](C)O3)C2)C(=O)c2c(OC)cccc2C4=O)cc1OCCCCCC [NOVA-9.HCl]
Cytotoxicity against P-388 cells (IC50, μg/ml) (B) ([1]; P-388, 48 hours, MTT technique): 3.1 µg/mL
IC50 [3]: 17.7 µM
Enzyme inhibitory activity/cytotoxicity ratio (A)/(B) [3]: 4.8

CCCCCCCCCCCOc1ccc(C(=O)OCC(=O)[C@]2(O)Cc3c(O)c4c(c(O)c3[C@@H](O[C@H]3C[C@H](N)[C@H](O)[C@H](C)O3)C2)C(=O)c2c(OC)cccc2C4=O)cc1OCCCCCCCCCCC [NOVA-10.HCl]
IC50 ([1]; P-388, 48 hours, MTT technique): 1.8 µg/mL
IC50 [3]: 16.2 µM
Enzyme inhibitory activity/cytotoxicity ratio (A)/(B) [3]: 8.9

CCCCCCCCCCCCCCCCCCOc1ccc(C(=O)OCC(=O)[C@]2(O)Cc3c(O)c4c(c(O)c3[C@@H](O[C@H]3C[C@H](N)[C@H](O)[C@H](C)O3)C2)C(=O)c2c(OC)cccc2C4=O)cc1OCCCCCCCCCCCCCCCCCC [NOVA-11.HCl]
IC50 ([1]; P-388, 48 hours, MTT technique): 1.9 µg/mL
IC50 [3]: 84.4 µM
Enzyme inhibitory activity/cytotoxicity ratio (A)/(B) [3]: 53

CCCCC(=O)Oc1ccc(C(=O)OCC(=O)[C@]2(O)Cc3c(O)c4c(c(O)c3[C@@H](O[C@H]3C[C@H](N)[C@H](O)[C@H](C)O3)C2)C(=O)c2c(OC)cccc2C4=O)cc1OC(=O)CCCC [NOVA-12.HCl]
IC50 ([1]; P-388, 48 hours, MTT technique): 0.22 µg/mL
IC50 [3]: 13 µM
Enzyme inhibitory activity/cytotoxicity ratio (A)/(B) [3]: 50
